Test system: LG0703-F498-PDC complex spheroid growth
Experiment: Anticancer human tumor LG0703-F498-PDC patient-derived lung adenocarcinoma cell line growth inhibition [AhR]
Conditions: for IC50: curve of first compound; for viability, T/C: stronger effect = lower value
Outline: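 Complex tumor spheroids co-cultured with HUVEC and human MSC stroma; AhR antagonists tested in combination with standard-of-care and investigational agents. Top concentration at or near clinical Cmax (else 10 microM), half-log dilutions; growth expressed as percent test/control.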

[1] = second compound 0.1 µM, first compound 0.00949 µM
[2] = second compound 0.1 µM, first compound 0.03 µM
[3] = second compound 0.1 µM, first compound 0.0949 µM
[4] = second compound 0.1 µM, first compound 0.3 µM
[5] = second compound 0.1 µM, first compound 0.949 µM
[6] = second compound 0.1 µM, first compound 3 µM
[7] = second compound 0.316 µM, first compound 0.00949 µM
[8] = second compound 0.316 µM, first compound 0.03 µM
[9] = second compound 0.316 µM, first compound 0.0949 µM
[10] = second compound 0.316 µM, first compound 0.3 µM
[11] = second compound 0.316 µM, first compound 0.949 µM
[12] = second compound 0.316 µM, first compound 3 µM
[13] = second compound 1 µM, first compound 0.00949 µM
[14] = second compound 1 µM, first compound 0.03 µM
[15] = second compound 1 µM, first compound 0.0949 µM
[16] = second compound 1 µM, first compound 0.3 µM
[17] = second compound 1 µM, first compound 0.949 µM
[18] = second compound 1 µM, first compound 3 µM
[19] = second compound 3.16 µM, first compound 0.00949 µM
[20] = second compound 3.16 µM, first compound 0.03 µM
[21] = second compound 3.16 µM, first compound 0.0949 µM
[22] = second compound 3.16 µM, first compound 0.3 µM
[23] = second compound 3.16 µM, first compound 0.949 µM
[24] = second compound 3.16 µM, first compound 3 µM
[25] = second compound 10 µM, first compound 0.00949 µM
[26] = second compound 10 µM, first compound 0.03 µM
[27] = second compound 10 µM, first compound 0.0949 µM
[28] = second compound 10 µM, first compound 0.3 µM
[29] = second compound 10 µM, first compound 0.949 µM
[30] = second compound 10 µM, first compound 3 µM
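Note: luminescence taken as a proxy for viable cell amount.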
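Throughout, for viability, T/C: percent of DMSO vehicle control where 100% means growth equal to vehicle.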

Structure (SMILES)	IC50 (second compound 0.1 µM) [µM]	IC50 (second compound 0.316 µM) [µM]	IC50 (second compound 1 µM) [µM]	IC50 (second compound 3.16 µM) [µM]	IC50 (second compound 10 µM) [µM]	viability, T/C [1] [%]	viability, T/C [2] [%]	viability, T/C [3] [%]	viability, T/C [4] [%]	viability, T/C [7] [%]	viability, T/C [8] [%]	viability, T/C [9] [%]	viability, T/C [10] [%]	viability, T/C [13] [%]	viability, T/C [14] [%]	viability, T/C [15] [%]	viability, T/C [16] [%]	viability, T/C [19] [%]	viability, T/C [20] [%]	viability, T/C [21] [%]	further results
CCN(c1cc(-c2ccc(CN3CCOCC3)cc2)cc(C(=O)NCc2c(C)cc(C)[nH]c2=O)c1C)C1CCOCC1 + Cc1ccccc1N=Nc1ccc(NC(=O)c2ccnn2C)c(C)c1	> 3	> 3	> 3	> 3	> 3	97.8	104	104	107	94.3	106	95	100	97.7	93.2	115	92	95.9	99.9	102	viability, T/C [5]: 112%; viability, T/C [6]: 118%; viability, T/C [11]: 102%; viability, T/C [12]: 106%; viability, T/C [17]: 97.3%; viability, T/C [18]: 99.8%; viability, T/C [22]: 94.2%; viability, T/C [23]: 87.1%; viability, T/C [24]: 101%; viability, T/C [25]: 81.9%; viability, T/C [26]: 86.1%; viability, T/C [27]: 96.4%; viability, T/C [28]: 86.1%; viability, T/C [29]: 82.2%; viability, T/C [30]: 98.5%
Nc1ncn(C2CC(O)C(CO)S2)c(=O)n1 (stereo not given) + Cc1ccccc1N=Nc1ccc(NC(=O)c2ccnn2C)c(C)c1	> 0.3	> 0.3	> 0.3	> 0.3	> 0.3	94.5	91.5	94.8	97.2	92.7	93.9	101	111	80.5	98.7	88	82.5	86.6	76.1	78.6	viability, T/C (second compound 0.1 µM, first compound 0.000949 µM): 103%; viability, T/C (second compound 0.1 µM, first compound 0.003 µM): 105%; viability, T/C (second compound 0.316 µM, first compound 0.000949 µM): 102%; viability, T/C (second compound 0.316 µM, first compound 0.003 µM): 93.9%; viability, T/C (second compound 1 µM, first compound 0.000949 µM): 99.3%; viability, T/C (second compound 1 µM, first compound 0.003 µM): 89.3%; viability, T/C (second compound 3.16 µM, first compound 0.000949 µM): 82.5%; viability, T/C (second compound 3.16 µM, first compound 0.003 µM): 85.7%; viability, T/C [22]: 103%; viability, T/C (second compound 10 µM, first compound 0.000949 µM): 87%; viability, T/C (second compound 10 µM, first compound 0.003 µM): 86.8%; viability, T/C [25]: 99%; viability, T/C [26]: 77.4%; viability, T/C [27]: 85%; viability, T/C [28]: 96.9%
O=C(C=Cn1cnc(-c2cc(C(F)(F)F)cc(C(F)(F)F)c2)n1)NNc1cnccn1 + Cc1ccccc1N=Nc1ccc(NC(=O)c2ccnn2C)c(C)c1	0.0768	0.0708	0.132	0.0857	0.119	76.4	73	44.9	37.3	85.4	64.2	45.5	39.7	83	72	54	39.8	71.1	63.6	47	viability, T/C [5]: 43.8%; viability, T/C [6]: 39.3%; viability, T/C [11]: 46.6%; viability, T/C [12]: 39.4%; viability, T/C [17]: 40%; viability, T/C [18]: 34.8%; viability, T/C [22]: 44.6%; viability, T/C [23]: 35.3%; viability, T/C [24]: 39.9%; viability, T/C [25]: 70%; viability, T/C [26]: 61.3%; viability, T/C [27]: 50.6%; viability, T/C [28]: 45.8%; viability, T/C [29]: 39.2%; viability, T/C [30]: 39.7%

Source: PubChem BioAssay AID1919013 (Molecular Pharmacology Branch, DTP, NCI, 2023)
